Measurements published in the kinase profiling compilation of Christmann-Franck et al. (2016).

Tests used:
Experiment in all cases: radiometric filter-binding kinase assay
PHKG1 (human) = PHKG1 (human) (UniProt Q16816)
INSR (human) = INSR (human) (UniProt P06213)
MAPK15 (human) = MAPK15 (human) (UniProt Q8TD08)
PRKACA (human) = PRKACA (human) (UniProt P17612)
RPS6KA5 KD1 KD2 (human) = RPS6KA5 KD1 KD2 (human) (UniProt O75582)
SRPK1 (human) = SRPK1 (human) (UniProt Q96SB4)
CSK (human) = CSK (human) (UniProt P41240)
PAK7 (human) = PAK7 (human) (UniProt Q9P286)
CAMKK2 (human) = CAMKK2 (human) (UniProt Q96RR4)
PRKAA1 or PRKAA2 (rat) = conditions: accession and sequence are those of the human protein
MKNK1 (human) = MKNK1 (human) (UniProt Q9BUB5)
CDK2 CCNA2 (human) = CDK2 CCNA2 (human) (UniProt P20248+P24941)
MST4 (human) = MST4 (human) (UniProt Q9P289)
Chain of MST4 (human) (Q9P289 whole entry, looked up): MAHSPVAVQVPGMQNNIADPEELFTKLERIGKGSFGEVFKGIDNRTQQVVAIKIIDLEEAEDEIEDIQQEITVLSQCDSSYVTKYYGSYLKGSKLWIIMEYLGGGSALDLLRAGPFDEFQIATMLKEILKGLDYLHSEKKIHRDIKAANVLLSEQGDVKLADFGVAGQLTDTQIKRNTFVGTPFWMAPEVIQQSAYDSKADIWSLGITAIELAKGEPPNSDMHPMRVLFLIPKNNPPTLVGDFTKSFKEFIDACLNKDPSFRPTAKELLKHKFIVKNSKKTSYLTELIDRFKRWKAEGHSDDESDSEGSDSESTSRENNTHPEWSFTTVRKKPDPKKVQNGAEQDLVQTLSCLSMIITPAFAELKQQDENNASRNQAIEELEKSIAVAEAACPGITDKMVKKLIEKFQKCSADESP

NEK2 (human) = NEK2 (human) (UniProt P51955)
Chain of NEK2 (human) (P51955 whole entry, looked up): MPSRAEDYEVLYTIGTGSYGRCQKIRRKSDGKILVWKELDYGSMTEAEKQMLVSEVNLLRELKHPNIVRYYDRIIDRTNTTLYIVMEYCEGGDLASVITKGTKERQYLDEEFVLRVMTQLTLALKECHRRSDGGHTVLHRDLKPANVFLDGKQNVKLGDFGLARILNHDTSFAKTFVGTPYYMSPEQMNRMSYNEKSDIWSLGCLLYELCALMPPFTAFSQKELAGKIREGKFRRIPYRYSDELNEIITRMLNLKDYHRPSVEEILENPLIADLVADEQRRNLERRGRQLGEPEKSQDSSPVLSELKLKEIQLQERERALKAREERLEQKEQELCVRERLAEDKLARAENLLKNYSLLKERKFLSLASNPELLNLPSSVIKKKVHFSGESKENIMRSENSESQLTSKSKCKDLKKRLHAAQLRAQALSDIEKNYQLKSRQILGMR

CaMK1 (human) = CaMK1 (human) (UniProt Q14012)
LCK (mouse) = conditions: accession and sequence are those of the human protein
PRKCA (human) = PRKCA (human) (UniProt P17252)
DYRK2 (human) = DYRK2 (human) (UniProt Q92630)
MAPKAPK2 (human) = MAPKAPK2 (human) (UniProt P49137)
Chain of MAPKAPK2 (human) (P49137 whole entry, looked up): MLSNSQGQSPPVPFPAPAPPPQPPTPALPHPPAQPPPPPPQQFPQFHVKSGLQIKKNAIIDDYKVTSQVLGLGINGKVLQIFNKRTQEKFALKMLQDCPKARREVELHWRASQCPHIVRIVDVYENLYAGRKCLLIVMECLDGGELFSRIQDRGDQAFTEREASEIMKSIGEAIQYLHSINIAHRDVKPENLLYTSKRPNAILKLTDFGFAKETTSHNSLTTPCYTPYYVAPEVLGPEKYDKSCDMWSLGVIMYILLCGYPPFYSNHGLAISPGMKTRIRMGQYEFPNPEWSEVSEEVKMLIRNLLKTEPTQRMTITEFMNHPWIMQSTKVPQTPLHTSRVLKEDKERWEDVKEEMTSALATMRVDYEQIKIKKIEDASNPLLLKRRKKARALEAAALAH

BTK (human) = BTK (human) (UniProt Q06187)
Chain of BTK (human) (Q06187 whole entry, looked up): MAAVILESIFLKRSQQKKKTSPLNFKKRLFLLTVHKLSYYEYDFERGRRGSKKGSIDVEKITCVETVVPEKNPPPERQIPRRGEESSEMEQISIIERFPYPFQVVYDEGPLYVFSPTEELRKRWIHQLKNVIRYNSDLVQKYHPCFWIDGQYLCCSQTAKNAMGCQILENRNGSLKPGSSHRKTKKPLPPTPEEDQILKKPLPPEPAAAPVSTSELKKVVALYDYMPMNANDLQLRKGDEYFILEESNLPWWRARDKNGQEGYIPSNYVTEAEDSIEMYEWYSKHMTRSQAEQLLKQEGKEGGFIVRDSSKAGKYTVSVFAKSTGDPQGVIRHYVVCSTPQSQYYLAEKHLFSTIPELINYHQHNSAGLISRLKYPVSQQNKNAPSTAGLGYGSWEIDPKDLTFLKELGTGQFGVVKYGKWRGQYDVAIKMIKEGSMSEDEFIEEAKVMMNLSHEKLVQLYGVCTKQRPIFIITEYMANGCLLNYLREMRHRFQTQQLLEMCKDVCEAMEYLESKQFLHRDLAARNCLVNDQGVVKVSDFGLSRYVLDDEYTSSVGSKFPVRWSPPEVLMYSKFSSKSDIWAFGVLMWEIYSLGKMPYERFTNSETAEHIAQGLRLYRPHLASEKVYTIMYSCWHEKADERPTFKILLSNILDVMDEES

MAP2K1 (human) = MAP2K1 (human) (UniProt Q02750)
EPHA2 (human) = EPHA2 (human) (UniProt P29317)
Chain of EPHA2 (human) (P29317 whole entry, looked up): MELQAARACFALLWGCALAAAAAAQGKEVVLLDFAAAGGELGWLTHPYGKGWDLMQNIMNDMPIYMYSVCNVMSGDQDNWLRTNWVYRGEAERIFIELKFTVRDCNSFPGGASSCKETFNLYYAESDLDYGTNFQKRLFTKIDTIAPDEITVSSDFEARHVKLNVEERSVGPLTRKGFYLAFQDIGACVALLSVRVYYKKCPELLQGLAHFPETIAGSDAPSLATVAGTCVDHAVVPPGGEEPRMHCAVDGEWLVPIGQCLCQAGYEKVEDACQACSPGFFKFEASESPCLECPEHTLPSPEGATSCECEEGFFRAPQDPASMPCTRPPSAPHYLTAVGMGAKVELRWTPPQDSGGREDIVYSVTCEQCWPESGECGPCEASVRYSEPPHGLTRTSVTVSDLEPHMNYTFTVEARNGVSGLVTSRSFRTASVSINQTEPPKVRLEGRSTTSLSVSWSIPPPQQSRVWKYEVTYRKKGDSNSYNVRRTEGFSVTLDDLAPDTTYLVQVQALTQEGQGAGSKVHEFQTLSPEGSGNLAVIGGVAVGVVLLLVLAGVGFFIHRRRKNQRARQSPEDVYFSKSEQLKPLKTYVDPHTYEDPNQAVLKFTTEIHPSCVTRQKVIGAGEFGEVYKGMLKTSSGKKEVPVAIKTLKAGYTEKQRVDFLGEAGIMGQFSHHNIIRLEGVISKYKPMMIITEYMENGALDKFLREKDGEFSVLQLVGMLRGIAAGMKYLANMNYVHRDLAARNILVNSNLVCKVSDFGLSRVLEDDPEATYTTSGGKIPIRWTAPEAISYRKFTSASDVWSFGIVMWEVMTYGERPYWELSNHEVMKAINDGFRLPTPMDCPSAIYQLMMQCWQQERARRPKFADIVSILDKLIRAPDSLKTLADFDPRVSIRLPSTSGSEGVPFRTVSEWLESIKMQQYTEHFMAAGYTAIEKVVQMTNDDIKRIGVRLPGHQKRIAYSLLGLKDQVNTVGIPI

NEK6 (human) = NEK6 (human) (UniProt Q9HC98)
INSRR (human) = INSRR (human) (UniProt P14616)

Chain of MAPK15 (human) (Q8TD08 whole entry, looked up): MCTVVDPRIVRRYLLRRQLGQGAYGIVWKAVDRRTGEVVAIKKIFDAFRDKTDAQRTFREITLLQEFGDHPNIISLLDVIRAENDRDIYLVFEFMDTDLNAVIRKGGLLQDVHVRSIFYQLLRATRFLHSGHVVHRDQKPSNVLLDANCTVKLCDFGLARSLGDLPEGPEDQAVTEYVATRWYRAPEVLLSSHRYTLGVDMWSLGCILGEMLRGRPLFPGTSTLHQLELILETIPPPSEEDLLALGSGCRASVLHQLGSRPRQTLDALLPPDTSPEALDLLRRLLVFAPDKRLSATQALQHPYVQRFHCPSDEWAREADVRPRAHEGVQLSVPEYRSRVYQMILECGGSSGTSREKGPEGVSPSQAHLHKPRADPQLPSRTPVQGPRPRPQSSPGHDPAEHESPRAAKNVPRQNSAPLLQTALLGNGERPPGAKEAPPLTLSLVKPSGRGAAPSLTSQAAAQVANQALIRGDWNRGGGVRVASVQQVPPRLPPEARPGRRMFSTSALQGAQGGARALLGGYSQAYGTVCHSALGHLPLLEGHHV
Chain of SRPK1 (human) (Q96SB4 whole entry, looked up): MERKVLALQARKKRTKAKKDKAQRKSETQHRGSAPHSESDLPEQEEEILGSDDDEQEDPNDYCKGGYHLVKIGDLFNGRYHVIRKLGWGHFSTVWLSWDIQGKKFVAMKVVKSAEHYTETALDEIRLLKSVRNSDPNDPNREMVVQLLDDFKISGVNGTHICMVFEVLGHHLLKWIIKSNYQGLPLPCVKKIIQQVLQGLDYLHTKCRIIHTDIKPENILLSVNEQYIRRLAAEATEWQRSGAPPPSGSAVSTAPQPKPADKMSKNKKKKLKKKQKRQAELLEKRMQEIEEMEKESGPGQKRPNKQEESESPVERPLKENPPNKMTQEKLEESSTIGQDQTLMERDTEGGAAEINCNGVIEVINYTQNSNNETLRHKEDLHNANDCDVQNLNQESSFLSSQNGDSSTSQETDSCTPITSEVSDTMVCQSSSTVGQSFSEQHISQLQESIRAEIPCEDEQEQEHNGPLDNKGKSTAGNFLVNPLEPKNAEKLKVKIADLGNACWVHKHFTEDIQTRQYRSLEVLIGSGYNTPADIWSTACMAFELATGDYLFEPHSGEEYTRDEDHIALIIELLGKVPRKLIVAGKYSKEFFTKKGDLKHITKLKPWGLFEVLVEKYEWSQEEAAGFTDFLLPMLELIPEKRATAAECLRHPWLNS

Question: With `Cc1cc(SCc2sc(-c3ccc(C(F)(F)F)cc3)nc2C)ccc1OCC(=O)O` as the compound, how does the residual activity (PHKG1 (human); compound 1.0 µM) read?
Answer: The residual activity was 109%.

Question: And the residual activity (PHKG1 (human); compound 10.0 µM)?
Answer: The residual activity was 96%.

Question: And the residual activity (INSR (human); compound 1.0 µM)?
Answer: Its residual activity is 107%.

Question: What about the residual activity (INSR (human); compound 10.0 µM) of the same compound?
Answer: Its residual activity is 103%.

Question: What about the residual activity (MAPK15 (human); compound 1.0 µM) of the same compound?
Answer: The residual activity was 103%.

Question: What about the residual activity (MAPK15 (human); compound 10.0 µM) of the same compound?
Answer: Its residual activity is 109%.

Question: And the residual activity (PRKACA (human); compound 1.0 µM)?
Answer: The residual activity was 110%.

Question: What about the residual activity (PRKACA (human); compound 10.0 µM) of the same compound?
Answer: Its residual activity is 86%.

Question: And the residual activity (RPS6KA5 KD1 KD2 (human); compound 1.0 µM)?
Answer: Its residual activity is 96%.

Question: And the residual activity (RPS6KA5 KD1 KD2 (human); compound 10.0 µM)?
Answer: Its residual activity is 92%.

Question: And the residual activity (SRPK1 (human); compound 1.0 µM)?
Answer: The residual activity was 96%.

Question: What about the residual activity (SRPK1 (human); compound 10.0 µM) of the same compound?
Answer: Its residual activity is 87%.

Question: What about the residual activity (CSK (human); compound 1.0 µM) of the same compound?
Answer: Its residual activity is 98%.

Question: And the residual activity (CSK (human); compound 10.0 µM)?
Answer: The residual activity was 97%.

Question: And the residual activity (PAK7 (human); compound 1.0 µM)?
Answer: Its residual activity is 97%.

Question: What about the residual activity (PAK7 (human); compound 10.0 µM) of the same compound?
Answer: The residual activity was 111%.

Question: What about the residual activity (CAMKK2 (human); compound 1.0 µM) of the same compound?
Answer: The residual activity was 86%.

Question: And the residual activity (CAMKK2 (human); compound 10.0 µM)?
Answer: The residual activity was 83%.

Question: What about the residual activity (PRKAA1 or PRKAA2 (rat); compound 1.0 µM) of the same compound?
Answer: Its residual activity is 94%.

Question: And the residual activity (PRKAA1 or PRKAA2 (rat); compound 10.0 µM)?
Answer: Its residual activity is 91%.

Question: What about the residual activity (MKNK1 (human); compound 1.0 µM) of the same compound?
Answer: The residual activity was 89%.

Question: What about the residual activity (MKNK1 (human); compound 10.0 µM) of the same compound?
Answer: The residual activity was 79%.

Question: What about the residual activity (CDK2 CCNA2 (human); compound 1.0 µM) of the same compound?
Answer: Its residual activity is 87%.

Question: And the residual activity (CDK2 CCNA2 (human); compound 10.0 µM)?
Answer: The residual activity was 81%.

Question: What about the residual activity (MST4 (human); compound 1.0 µM) of the same compound?
Answer: The residual activity was 104%.

Question: And the residual activity (MST4 (human); compound 10.0 µM)?
Answer: The residual activity was 83%.

Question: And the residual activity (NEK2 (human); compound 1.0 µM)?
Answer: The residual activity was 94%.

Question: And the residual activity (NEK2 (human); compound 10.0 µM)?
Answer: Its residual activity is 153%.

Question: What about the residual activity (CaMK1 (human); compound 1.0 µM) of the same compound?
Answer: Its residual activity is 95%.

Question: And the residual activity (CaMK1 (human); compound 10.0 µM)?
Answer: Its residual activity is 62%.

Question: And the residual activity (LCK (mouse); compound 1.0 µM)?
Answer: The residual activity was 106%.

Question: What about the residual activity (LCK (mouse); compound 10.0 µM) of the same compound?
Answer: The residual activity was 98%.

Question: What about the residual activity (PRKCA (human); compound 1.0 µM) of the same compound?
Answer: Its residual activity is 96%.

Question: What about the residual activity (PRKCA (human); compound 10.0 µM) of the same compound?
Answer: Its residual activity is 88%.

Question: And the residual activity (DYRK2 (human); compound 1.0 µM)?
Answer: Its residual activity is 103%.

Question: And the residual activity (DYRK2 (human); compound 10.0 µM)?
Answer: Its residual activity is 111%.

Question: What about the residual activity (MAPKAPK2 (human); compound 1.0 µM) of the same compound?
Answer: The residual activity was 97%.

Question: And the residual activity (MAPKAPK2 (human); compound 10.0 µM)?
Answer: Its residual activity is 84%.

Question: And the residual activity (BTK (human); compound 1.0 µM)?
Answer: The residual activity was 92%.

Question: And the residual activity (BTK (human); compound 10.0 µM)?
Answer: Its residual activity is 95%.

Question: And the residual activity (MAP2K1 (human); compound 1.0 µM)?
Answer: The residual activity was 105%.

Question: What about the residual activity (MAP2K1 (human); compound 10.0 µM) of the same compound?
Answer: Its residual activity is 90%.

Question: What about the residual activity (EPHA2 (human); compound 1.0 µM) of the same compound?
Answer: The residual activity was 103%.

Question: And the residual activity (EPHA2 (human); compound 10.0 µM)?
Answer: The residual activity was 113%.

Question: And the residual activity (NEK6 (human); compound 1.0 µM)?
Answer: The residual activity was 101%.

Question: And the residual activity (INSRR (human); compound 1.0 µM)?
Answer: Its residual activity is 81%.

Question: What about the residual activity (INSRR (human); compound 10.0 µM) of the same compound?
Answer: The residual activity was 95%.

Question: What does the source list for `C[C@H]1CCCC(=O)CCC/C=C/c2cc(O)cc(O)c2C(=O)O1`?
Answer: residual activity (PHKG1 (human); compound 1.0 µM): 102%; residual activity (PHKG1 (human); compound 10.0 µM): 86%; residual activity (INSR (human); compound 1.0 µM): 107%; residual activity (INSR (human); compound 10.0 µM): 102%; residual activity (MAPK15 (human); compound 1.0 µM): 77%; residual activity (MAPK15 (human); compound 10.0 µM): 26%; residual activity (PRKACA (human); compound 1.0 µM): 97%; residual activity (PRKACA (human); compound 10.0 µM): 91%; residual activity (RPS6KA5 KD1 KD2 (human); compound 10.0 µM): 36%; residual activity (SRPK1 (human); compound 1.0 µM): 95%; residual activity (SRPK1 (human); compound 10.0 µM): 89%; residual activity (CSK (human); compound 1.0 µM): 80%; residual activity (CSK (human); compound 10.0 µM): 64%; residual activity (PAK7 (human); compound 1.0 µM): 93%; residual activity (PAK7 (human); compound 10.0 µM): 80%; residual activity (CAMKK2 (human); compound 1.0 µM): 90%; residual activity (CAMKK2 (human); compound 10.0 µM): 52%; residual activity (PRKAA1 or PRKAA2 (rat); compound 1.0 µM): 94%; residual activity (PRKAA1 or PRKAA2 (rat); compound 10.0 µM): 60%; residual activity (MKNK1 (human); compound 1.0 µM): 89%; residual activity (MKNK1 (human); compound 10.0 µM): 46%; residual activity (CDK2 CCNA2 (human); compound 1.0 µM): 82%; residual activity (CDK2 CCNA2 (human); compound 10.0 µM): 32%; residual activity (MST4 (human); compound 10.0 µM): 66%; residual activity (NEK2 (human); compound 1.0 µM): 93%; residual activity (NEK2 (human); compound 10.0 µM): 96%; residual activity (CaMK1 (human); compound 1.0 µM): 101%; residual activity (CaMK1 (human); compound 10.0 µM): 75%; residual activity (LCK (mouse); compound 1.0 µM): 69%; residual activity (LCK (mouse); compound 10.0 µM): 26%; residual activity (PRKCA (human); compound 1.0 µM): 54%; residual activity (PRKCA (human); compound 10.0 µM): 69%; residual activity (DYRK2 (human); compound 1.0 µM): 90%; residual activity (DYRK2 (human); compound 10.0 µM): 62%; residual activity (MAPKAPK2 (human); compound 1.0 µM): 101%; residual activity (MAPKAPK2 (human); compound 10.0 µM): 92%; residual activity (BTK (human); compound 1.0 µM): 107%; residual activity (BTK (human); compound 10.0 µM): 69%; residual activity (MAP2K1 (human); compound 1.0 µM): 66%; residual activity (MAP2K1 (human); compound 10.0 µM): 55%; residual activity (EPHA2 (human); compound 1.0 µM): 69%; residual activity (EPHA2 (human); compound 10.0 µM): 26%; residual activity (NEK6 (human); compound 1.0 µM): 91%; residual activity (NEK6 (human); compound 10.0 µM): 91%; residual activity (INSRR (human); compound 1.0 µM): 75%; residual activity (INSRR (human); compound 10.0 µM): 41%
